Patent publication US20160130278A1 (TAISHO PHARMACEUTICAL CO., LTD, priority 2013, published 2016)

These compounds were tested against T1, human type 1 glycine transporter (GlyT1) (Homo sapiens, UniProt P48067) (assay: Glycine uptake inhibition experiment ([3H]glycine uptake)). Settings: GlyT1.
T1 construct: T98G cells (glioma cells) expressing human type 1 glycine transporter (GlyT1) were used
T1 sequence (P48067 1-706): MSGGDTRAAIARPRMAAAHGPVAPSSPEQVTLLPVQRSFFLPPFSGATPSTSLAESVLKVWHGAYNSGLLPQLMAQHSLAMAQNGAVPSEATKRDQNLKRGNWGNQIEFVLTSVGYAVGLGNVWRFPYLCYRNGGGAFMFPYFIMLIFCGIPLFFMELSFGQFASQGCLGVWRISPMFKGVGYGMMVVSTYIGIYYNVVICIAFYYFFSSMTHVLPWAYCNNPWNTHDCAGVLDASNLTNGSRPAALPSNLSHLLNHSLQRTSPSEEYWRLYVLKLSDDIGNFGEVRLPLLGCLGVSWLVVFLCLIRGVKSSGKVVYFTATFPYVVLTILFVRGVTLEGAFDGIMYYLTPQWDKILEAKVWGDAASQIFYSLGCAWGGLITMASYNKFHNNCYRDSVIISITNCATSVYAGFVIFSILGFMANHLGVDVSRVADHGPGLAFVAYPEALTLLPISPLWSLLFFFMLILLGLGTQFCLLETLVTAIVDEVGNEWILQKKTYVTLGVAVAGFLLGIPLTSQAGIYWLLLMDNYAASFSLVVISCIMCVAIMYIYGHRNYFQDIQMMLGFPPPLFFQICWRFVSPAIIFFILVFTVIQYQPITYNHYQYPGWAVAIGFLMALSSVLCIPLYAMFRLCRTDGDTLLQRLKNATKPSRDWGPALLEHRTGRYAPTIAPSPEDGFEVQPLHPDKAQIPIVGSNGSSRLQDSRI
Assay type: cell-based
Description: Glycine Uptake Inhibition Experiment
A glycine uptake experiment was conducted in accordance with the method published in Neuron, 8, 927-935, 1992. In the experiment, T98G cells (glioma cells) expressing human type 1 glycine transporter (GlyT1) were used. The T98G cells were seeded in a 96-well plate at 2.0×10^4 cells/well and cultured overnight in a CO2 incubator. The test substance was dissolved in a 100% DMSO solution and then dissolved in a 10 mM HEPES buffer solution (pH 7.4) containing 150 mM sodium chloride, 1 mM calcium chloride, 5 mM potassium chloride, 1 mM magnesium chloride, 10 mM glucose and 0.2% bovine serum albumin. After removing the cell culture medium, the test substance was subjected to a 10-min pretreatment. Subsequently, the test substance and [^3H] glycine (final concentration: 250 nM) were added to the cells and reaction was performed at room temperature for 15 minutes. After the end of the reaction, the extracellular fluid was aspirated with a manifold to remove excess labeled glycine present outside the cells, and then the cells were lysed with a 0.5 M aqueous sodium hydroxide solution. The glycine content in the cells was determined by measuring the radioactivity in the cell lysate with a liquid scintillation counter. Glycine uptake in the presence of 10 μM ALX5407 was defined as non-specific uptake, and the value calculated by subtracting the amount of the non-specific uptake from the total uptake in the absence of 10 μM ALX5407 was defined as specific uptake. In addition, glycine uptake inhibitory activity (IC50 value) was calculated from an inhibition curve at the concentrations of each test substance ranging from 10^−9 to 10^−5 M. It should be noted that ALX5407 is an HCl salt of N-[(3R)-3-([1,1′-biphenyl]-4-yloxy)-3-(4-fluorophenyl)propyl]-N-methylglycine.

IC50 [µM] | Compound
2 | COc1cc(C(F)(F)F)cc(C(F)(F)F)c1C(=O)NC(c1ccccc1)C1(O)CCCC1 (stereo not drawn) [Compound 29, N-[(1-hydroxycyclopentyl)(phenyl)methyl]-2-methoxy-4,6-bis(trifluoromethyl)benzamide]
2.3 | O=C(NC(c1cccnc1Cl)C1(O)CCC(F)(F)CC1)c1ccc(C(F)(F)F)nc1Cl (single isomer, unassigned) [Compound 344, 2-chloro-N-[(2-chloropyridin-3-yl)(4,4-difluroo-1-hydroxycyclohexyl)methyl]-6-(trifluoromethyl)pyridine-3-carboxamide]
0.43 | O=C(NC(c1ccc(F)c(Cl)c1)C1(O)CCCC1)c1nccc(C(F)(F)F)c1Cl (stereo not drawn) [Compound 93, 3-chloro-N-{(3-chloro-4-fluorophenyl)(1-hydroxycyclopentyl)methyl}-4-(trifluoromethyl)pyridine-2-carboxamide]
1.4 | O=C(NC(c1cccc(Br)c1)C1(O)CCCCC1)c1nccc(C(F)(F)F)c1Cl (single isomer, unassigned) [Compound 43, N-[(3-bromophenyl)(1-hydroxycyclohexyl)methyl]-3-chloro-4-(trifluoromethyl)pyridine-2-carboxamide]
0.2 | O=C(NC(c1cccc(-c2ccccn2)c1)C1(O)CCC(F)(F)CC1)c1ccnc(C(F)(F)F)c1Cl (single isomer, unassigned) [Compound 189, 3-chloro-N-{(4,4-difluoro-1-hydroxycyclohexyl)[3-(pyridin-2-yl)phenyl]methyl}-2-(trifluoromethyl)pyridine-4-carboxamide]
0.33 | O=C(NC(c1cccnc1Cl)[C@]1(O)CC[C@@H](F)CC1)c1nccc(C(F)(F)F)c1Cl (single isomer, unassigned) [Compound 273, 3-chloro-N-[(2-chloropyridin-3-yl)(cis-4-fluoro-1-hydroxycyclohexyl)methyl]-4-(trifluoromethyl)pyridine-2-carboxamide]
0.15 | O=C(N[C@@H](c1cccc(Cl)c1)[C@]1(O)CC[C@@H](F)CC1)c1ccnc(C(F)(F)F)c1Cl [Compound 186, 3-chloro-N-[(S)-(3-chlorophenyl)(cis-4-fluoro-1-hydroxycyclohexyl)methyl]-2-(trifluoromethyl)pyridine-4-carboxamide]
0.065 | O=C(N[C@@H](c1cccc(Cl)c1)[C@]1(O)CC[C@@H](F)CC1)c1nccc(C(F)(F)F)c1Cl [Compound 162, 3-chloro-N-[(S)-(3-chlorophenyl)(cis-4-fluoro-1-hydroxycyclohexyl)methyl]-4-(trifluoromethyl)pyridine-2-carboxamide]
0.4 | O=C(NC(c1cccc(-c2ccncc2)c1)C1(O)CCCC1)c1cccc(C(F)(F)F)c1Cl (stereo not drawn) [Compound 4, 2-chloro-N-{(1-hydroxycyclopentyl)[3-(pyridin-4-yl)phenyl]methyl}-3-(trifluoromethyl)benzamide]
0.25 | O=C(NC(c1cccc(F)c1)C1(O)CCC(F)(F)CC1)c1nccc(C(F)(F)F)c1Cl (single isomer, unassigned) [Compound 76, 3-chloro-N-[(4,4-difluoro-1-hydroxycyclohexyl)(3-fluorophenyl)methyl]-4-(trifluoromethyl)pyridine-2-carboxamide]
0.39 | O=C(NC(c1ccccc1F)[C@]1(O)CC[C@@H](F)CC1)c1nccc(C(F)(F)F)c1Cl (single isomer, unassigned) [Compound 239, 3-chloro-N-[(cis-4-fluoro-1-hydroxycyclohexyl)(2-fluorophenyl)methyl]-4-(trifluoromethyl)pyridine-2-carboxamide]
1.3 | O=C(NC(c1cccc(F)c1Cl)[C@]1(O)CC[C@@H](F)CC1)c1ccc(F)cc1Cl (single isomer, unassigned) [Compound 307, 2-chloro-N-[(2-chloro-3-fluorophenyl)(cis-4-fluoro-1-hydroxycyclohexyl)methyl]-4-fluorobenzamide]
0.83 | CCn1cc(-c2cccc(C(NC(=O)c3nccc(C(F)(F)F)c3Cl)C3(O)CCCC3)c2)cn1 (single isomer, unassigned) [Compound 13, 3-chloro-N-{[3-(1-ethyl-1H-pyrazol-4-yl)phenyl](1-hydroxycyclopentyl)methyl}-4-(trilfuoromethyl)pyridine-2-carboxamide]
0.2 | O=C(NC(c1ccccc1F)C1(O)CCCC1)c1nccc(C(F)(F)F)c1Cl (single isomer, unassigned) [Compound 60, 3-chloro-N-[(2-fluorophenyl)(1-hydroxycyclopentyl)methyl]-4-(trifluoromethyl)pyridine-2-carboxamide]
1.3 | O=C(NC(c1cccc(F)c1Cl)[C@]1(O)CC[C@@H](F)CC1)c1ccc(C(F)(F)F)nc1-n1ccnn1 (single isomer, unassigned) [Compound 394, N-[(2-chloro-3-fluorophenyl)(cis-4-fluoro-1-hydroxycyclohexyl)methyl]-2-(1H-1,2,3-triazol-1-yl)-6-(trifluoromethyl)pyridine-3-carboxamide]
1.2 | CCn1cc(-c2cccc(C(NC(=O)c3cccc(F)c3Cl)C3(O)CCC(F)(F)CC3)c2)cn1 (stereo not drawn) [Compound 209, 2-chloro-N-{(4,4-difluoro-1-hydroxycyclohexyl)[3-(1-ethyl-1H-pyrazol-4-yl)phenyl]methyl}-3-fluorobenzamide]
0.082 | O=C(NC(c1cccc(Cl)c1F)C1(O)CCC(F)CC1)c1nccc(C(F)(F)F)c1Cl (single isomer, unassigned) [Compound 199, 3-chloro-N-[(3-chloro-2-fluorophenyl)(4-fluoro-1-hydroxycyclohexyl)methyl]-4-(trifluoromethyl)pyridine-2-carboxamide]
2.6 | O=C(NC(c1cccc(F)c1)C1(O)CCCCC1)c1nccc(C(F)(F)F)c1Cl (single isomer, unassigned) [Compound 68, 3-chloro-N-[(3-fluorophenyl)(1-hydroxycyclohexyl)methyl]-4-(trifluoromethyl)pyridine-2-carboxamide]
0.3 | O=C(NC(c1cccc(Br)c1)C1(O)CCC(F)(F)CC1)c1nccc(C(F)(F)F)c1Cl (single isomer, unassigned) [Compound 90, N-[(3-bromophenyl)(4,4-difluoro-1-hydroxycyclohexyl)methyl]-3-chloro-4-(trifluoromethyl)pyridine-2-carboxamide]
0.13 | O=C(NC(c1cccc(Cl)n1)C1(O)CCC(F)(F)CC1)c1nccc2ccccc12 (single isomer, unassigned) [Compound 355, N-[(6-chloropyridin-2-yl)(4,4-difluoro-1-hydroxycyclohexyl)methyl]isoquinoline-1-carboxamide]
0.16 | O=C(NC(c1cccc(Cl)c1Cl)C1(O)CCC(F)(F)CC1)c1nccc(C(F)(F)F)c1Cl (stereo not drawn) [Compound 131, 3-chloro-N-[(2,3-dichlorophenyl)(4,4-difluoro-1-hydroxycyclohexyl)methyl]-4-(trifluoromethyl)pyridine-2-carboxamide]
0.035 | CS(=O)(=O)c1cnc(C(F)(F)F)cc1C(=O)NC(c1cccc(F)c1Cl)[C@]1(O)CC[C@@H](F)CC1 (single isomer, unassigned) [Compound 386, N-[(2-chloro-3-fluorophenyl)(cis-4-fluoro-1-hydroxycyclohexyl)methyl]-5-(methylsulfonyl)-2-(trifluoromethyl)pyridine-4-carboxamide]
0.064 | O=C(NC(c1cccc(Cl)c1F)C1(O)CCC(F)CC1)c1nccc(C(F)(F)F)c1Cl (single isomer, unassigned) [Compound 200, 3-chloro-N-[(3-chloro-2-fluorophenyl)(4-fluoro-1-hydroxycyclohexyl)methyl}-4-(trifluoromethyl)pyridine-2-carboxamide]

Same assay, conditions: human GlyT1

IC50 [µM] | Compound
0.23 | CS(=O)(=O)c1cc(C(F)(F)F)ccc1C(=O)NC(c1cccc(F)c1Cl)C1(O)CCC(F)(F)CC1 (single isomer, unassigned) [Compound 401, N-[(2-chloro-3-fluorophenyl)(4,4-difluoro-1-hydroxycyclohexyl)methyl]-2-(methylsulfonyl)-4-(trifluoromethyl)benzamide]
